Laboratory results from patent US11613753B2, “Methods and pharmaceutical compositions for treating tubulin carboxypeptidases associated diseases” (LES LABORATOIRES SERVIER, priority 2017, dated 2023).
Entries after “also recorded” stand apart in the source; their conditions may differ.

Biological target: T1, brain TCP (fraction IV) (Mus musculus, UniProt Q8C1W1)
T1 construct: from tissue; host or cells: adult mouse brain, fraction IV (ammonium sulfate cut, Hitrap Q XL flow-through, Hitrap SP XL eluate)
T1 sequence (Q8C1W1 1-375): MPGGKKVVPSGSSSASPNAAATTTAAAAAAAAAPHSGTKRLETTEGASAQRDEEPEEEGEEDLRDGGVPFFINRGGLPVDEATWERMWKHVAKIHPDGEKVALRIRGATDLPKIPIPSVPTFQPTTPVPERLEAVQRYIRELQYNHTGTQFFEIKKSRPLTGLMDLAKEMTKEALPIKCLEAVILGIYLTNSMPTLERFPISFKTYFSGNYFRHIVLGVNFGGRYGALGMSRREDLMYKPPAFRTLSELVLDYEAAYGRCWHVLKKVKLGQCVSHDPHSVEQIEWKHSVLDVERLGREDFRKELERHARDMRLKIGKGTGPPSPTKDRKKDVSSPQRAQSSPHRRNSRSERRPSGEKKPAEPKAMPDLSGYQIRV
T1 sequence (Q99LQ4 1-66 partner): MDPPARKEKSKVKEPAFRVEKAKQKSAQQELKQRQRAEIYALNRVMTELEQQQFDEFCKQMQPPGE
Assay: TCP activity assay, radioactivity test with [14C]-tyrosinated taxol-stabilized microtubules, on enriched brain fraction IV
Type: biochemical
Details: FIG. 1B
Experimental: Preparation of tyrosinated tubulin and microtubule, and EB1. Bovine brain tubulin (12 mg/mL, prepared as in (S. Ramirez-Rios et al., (2016) Molecular biology of the cell 27, 2924) was tyrosinated by incubation for 45 min at 30° C. with purified chicken TTL (1 mg/mL, gift from Steinmetz group) and 0.1 mM L-tyrosine or [14C]-L-tyrosine (0.125 μCi/mole) in 40 mM Pipes at pH 6.7, 60 mM KCl, 2.5 mM ATP, 1 mM DTT, 12.5 mM MgCl2. Microtubules polymerization was allowed by one-third dilution in 100 mM PIPES at pH 6.7. 1 mM EGTA, 1 mM MgCl2, 30% glycerol, 1 mM GTP and incubation at 32° C. for 45 min, followed by another 45 min incubation with 50 μM Paclitaxel (Calbiochem). Microtubules were sedimented by 25 min centrifugation at 100,000 g and 30° C. on 60% glycerol cushions. TTL-containing supernatant was discarded and tyrosinated-microtubules were resuspended in 100 mM PIPES at pH 6.7, 1 mM EGTA, 1 mM MgCl2, 10% glycerol, 80 μM paclitaxel and stored at −20° C. To obtain unpolymerized tyrosinated-tubulin, paclitaxel was omitted during the whole procedure. EB1 was prepared as in S. Ramirez-Rios et al., (2016) Molecular biology of the cell 27, 2924.
TCP activity assays. In radioactivity tests using [14C]-tyrosinated taxol-stabilized microtubule, enzyme activity was measured in 100 mM MES at pH 6.7. 1 mM EGTA and 1 mM MgCl2 using 2 μM radiolabeled tubulin, except in FIGS. 2D and S2D (as indicated in legend). Reactions were performed for 45 min at 37° C. (without or with previous incubation with inhibitors, see legends) and were stopped on ice by addition of 20 μg/ml bovine serum albumin and 10% perchloric acid and centrifugation. Tyrosine cleaved from microtubules was estimated by measuring radioactivity in the supernatant (a zero time control was subtracted). To compose the table of Fig. S1A, detyrosination activity from equal volumes of the various fractions was measured. In tests with inhibitors, detyrosination activity was tested after a 20 min preincubation with inhibitor (except in Figs. S2C and S2) where varying time of incubation were used as indicated in legend), and results with inhibitors were expressed as percentage of the activity in the control with corresponding solvent. In tests using Western-blots, enzyme activity was assayed with 5 μM substrates (taxol-stabilized microtubule, tubulin or EB1) in 100 mM MES at pH 6.7. Positive controls were done with carboxypeptidase A (2 ng/mL). Reactions were stopped by addition of Laemmli buffer. A reaction with carboxypeptidase A (CPA), which efficiently cleaves aromatic and aliphatic C-terminal residues, was used as positive control. In tests using VASH/SVBP complexes purified on cobalt resin from HEK293T cells, enzymes concentration were approximated from in-gel Coomassie-blue staining of purified VASH1 and VASH2 together with standards of bovine serum albumin.
Enzyme enrichment. We designed a three-step purification procedure from brain lysate inspired from previous efforts (N. Kumar, M. Flavin, (1981) The Journal of biological chemistry 256, 7678; C. E. Argarana, H. S. Barra, R. Caputto, (1980) Journal of neurochemistry 34, 114). All steps were carried out at 4° C. Adult mice brains were homogenized in 50 mM phosphate buffer at pH 6.7, 1 mM EGTA, 1 mM MgCl2, 1 μg/ml DNAse with a protease inhibitor cocktail (cOmplete EDTA-free, Roche) and centrifuged 1 h at 100.000 g. The supernatant was collected (Fraction 1). In step 1 (ammonium sulfate fractionation), Fraction 1 was slowly brought to 45% ammonium sulfate, incubated for 15 min and centrifuged 20 min at 15,000 g. Resulting supernatant underwent the same procedure at 65% ammonium sulfate. The pellet was re-suspended in one-eighth of initial volume with 50 mM MES pH 6.7, 1 mM EGTA, 1 mM MgCl2 and desalted using Bio-Gel P30 (Bio-Rad) equilibrated with the same buffer (Fraction 11). […]

With `CC(C)C[C@H](NC(=O)[C@H]1O[C@@H]1C(=O)O)C(=O)NCCCCN=C(N)N` [E-64] the IC50, inhibition of TCP activity (20 min preincubation with inhibitor) was 300 µM and the “Inhibition of brain TCP activity (in words)” value (shortened to “Inhibition … (in words)”) was “inhibited; also recorded: modest inhibitory activity”.
For `CCOC(=O)[C@H]1O[C@@H]1C(=O)N[C@@H](Cc1ccc(O)cc1)C(=O)O` [EpoY], the IC50 (20 min preincubation with inhibitor, read-out: IC50, inhibition of TCP activity) was about 0.5 µM and the “Inhibition … (in words)” value was “most potent inhibitor”.
In the case of `NCCc1ccc(S(=O)(=O)F)cc1` [AEBSF], the “Inhibition … (in words)” value is reported as “inhibited”.
`CCN1C(=O)C=CC1=O` [N-Ethylmaleimide] was tested, and the “Inhibition … (in words)” value was “inhibited”.
